Results on 7 compounds are retold here after patent US8536351B2, “2-aryl-5-heterocyclyl-cyclohexane-1,3,dione compounds and their use as herbicides” (Syngenta Crop Protection LLC, priority 2007, dated 2013).

Common to all, as to type: in vivo
Assay [1] concerns Alopecurus myosuroides (ALOMY). Put plainly: Pre-emergence activity, glasshouse pot test (100=total damage to plant; 0=no damage to plant). Conditions: rate 500 g/ha, evaluated 19, 20 or 21 days after spraying. The protocol: (§1) Monocotyledonous and dicotyledonous test plants were sown in standard soil in pots. After cultivation for one day (pre-emergence) or after 10 days cultivation (post-emergence) under controlled conditions in a glasshouse, the plants were sprayed with an aqueous spray solution derived from the formulation of the technical active ingredient in 0.6 ml acetone and 45 ml formulation solution containing 10.6% Emulsogen EL (Registry number 61791-12-6), 42.2% N-methyl pyrrolidone, 42.2% dipropylene glycol monomethyl ether (Registry number 34590-94-8) and 0.2% X-77 (Registry number 11097-66-8). The test plants were then grown in a greenhouse under optimum conditions until, 14 or 15 days later for post-emergence and 19, 20 or 21 days for pre-emergence, the test was evaluated (100=total damage to plant; 0=no damage to plant). Alopecurus myosuroides (ALOMY), Avena fatua (AVEFA), Lolium perenne (LOLPE), Setaria faberi (SETFA), Digitaria sanguinalis (DIGSA), Echinochloa crus-galli (ECHCG) Pre-Emergence Activity

The subject of assay [2] is Avena fatua (AVEFA). Described as above. The conditions noted are these: rate 500 g/ha, evaluated 19, 20 or 21 days after spraying. The protocol: as §1
The subject of assay [3] is Digitaria sanguinalis (DIGSA). The description is as above. The conditions noted are these: rate 500 g/ha, evaluated 19, 20 or 21 days after spraying. The protocol: as §1
For assay [4], the system named is Echinochloa crus-galli (ECHCG). The assay is described as above. Conditions: rate 500 g/ha, evaluated 19, 20 or 21 days after spraying. The protocol: as §1
Assay [5] relates to Lolium perenne (LOLPE). The assay is described as above. Conditions: rate 500 g/ha, evaluated 19, 20 or 21 days after spraying. The protocol: as §1
Assay [6] deals with Setaria faberi (SETFA). The description is as above. The conditions noted are these: rate 500 g/ha, evaluated 19, 20 or 21 days after spraying. The protocol:
as §1

The test system of assay [7] is Alopecurus myosuroides (ALOMY). Briefly: Post-emergence activity, glasshouse pot test (100=total damage to plant; 0=no damage to plant). The conditions noted are these: 336 h, evaluated 14 or 15 days after spraying; for pest or weed control at 500 g/ha: rate 500 g/ha. The protocol: as §1, with “Post-Emergence” for “Pre-Emergence”
Assay [8] concerns Avena fatua (AVEFA). The assay is described as above. Conditions: 336 h, evaluated 14 or 15 days after spraying; for pest or weed control at 500 g/ha: rate 500 g/ha. The protocol:
as §1, with “Post-Emergence” for “Pre-Emergence”

Assay [9] relates to Digitaria sanguinalis (DIGSA). The assay is described as above. Conditions: evaluated 14 or 15 days after spraying; for pest or weed control at 500 g/ha: rate 500 g/ha. The protocol: as §1, with “Post-Emergence” for “Pre-Emergence”
For assay [10], the system named is Echinochloa crus-galli (ECHCG). Described as above. The conditions noted are these: evaluated 14 or 15 days after spraying; for pest or weed control at 500 g/ha: rate 500 g/ha. The protocol:
as §1, with “Post-Emergence” for “Pre-Emergence”

For assay [11], the system named is Lolium perenne (LOLPE). Described as above. The conditions noted are these: 336 h, evaluated 14 or 15 days after spraying; for pest or weed control at 500 g/ha: rate 500 g/ha. The protocol:
as §1, with “Post-Emergence” for “Pre-Emergence”

The test system of assay [12] is Setaria faberi (SETFA). Described as above. Conditions: evaluated 14 or 15 days after spraying; for pest or weed control at 500 g/ha: rate 500 g/ha. The protocol:
as §1, with “Post-Emergence” for “Pre-Emergence”

By pest or weed control is commonly meant the degree to which the test organism was suppressed or injured, in per cent. A lower pest or weed control goes with weak suppression. As for `CCc1cc(C)cc(CC)c1C1=C(O)CC(C2CCCS(=O)(=O)C2)CC1=O` (stereo not drawn) [Compound T19], the pest or weed control at 500 g/ha came to 100% in [1]; 90% in the assay on Avena fatua (AVEFA) [2]; 100% in assay [3]; 100% in assay [4]; 100% in the assay on Lolium perenne (LOLPE) [5]; 100% in the assay with Setaria faberi (SETFA) [6]. Also, the pest or weed control at 500 g/ha was 80% in assay [7]; 90% in the assay with Avena fatua (AVEFA) [8]; 100% in assay [9]; 100% in [10]; 80% in the assay with Lolium perenne (LOLPE) [11]; 100% in the assay on Setaria faberi (SETFA) [12].
In the case of `CCc1cc(C)cc(C)c1C1=C(O)CC(C2CCOC2)CC1=O` (stereo not drawn) [Compound T11], the pest or weed control at 500 g/ha in [1] came out at 80%; in the assay with Avena fatua (AVEFA) [2], 70%; in assay [3], 100%; in assay [4] it was 100%; with Lolium perenne (LOLPE) [5], 80%; with Setaria faberi (SETFA) [6], 100%. For the same compound, the pest or weed control at 500 g/ha stood at 90% in assay [7]; 90% in the assay with Avena fatua (AVEFA) [8]; 100% in assay [9]; 100% in assay [10]; 90% in the assay with Lolium perenne (LOLPE) [11]; 100% in the assay with Setaria faberi (SETFA) [12].
Consider `Cc1cc(C)c(C2=C(O)CC(C3CCCSC3)CC2=O)c(C)c1` (stereo not drawn) [Compound T14], for which the pest or weed control at 500 g/ha is 60% in assay [1]; 20% in the assay with Avena fatua (AVEFA) [2]; 90% in assay [3]; 70% in assay [4]; 70% in the assay on Lolium perenne (LOLPE) [5]; 90% in the assay with Setaria faberi (SETFA) [6]. Besides, the pest or weed control at 500 g/ha in assay [7] is 70%; with Avena fatua (AVEFA) [8] it was 30%; in [9] it was 90%; in assay [10] it was 80%; in the assay with Lolium perenne (LOLPE) [11], 60%; with Setaria faberi (SETFA) [12], 90%.
Take `Cc1ccc(-c2ccc(Cl)cc2)cc1C1=C(O)CC(C2CCOCC2)CC1=O` (stereo not drawn) [Compound T9]: the pest or weed control at 500 g/ha stood at 60% in assay [1]; 60% in the assay on Avena fatua (AVEFA) [2]; 80% in [3]; 100% in assay [4]; 100% in the assay on Lolium perenne (LOLPE) [5]; 100% in the assay with Setaria faberi (SETFA) [6]. Also, the pest or weed control at 500 g/ha in [7] was found to be 80%; in the assay with Avena fatua (AVEFA) [8], 70%; in assay [9], 90%; in assay [10], 100%; in the assay on Lolium perenne (LOLPE) [11] it was 100%; in the assay on Setaria faberi (SETFA) [12] it was 80%.
Regarding `CCc1cc(C)cc(CC)c1C1=C(O)CC(C2CCS(=O)(=O)CC2)CC1=O` (stereo not drawn) [Compound T20], the pest or weed control at 500 g/ha (in assay [1]; with Avena fatua (AVEFA) [2]; in assay [3]; in assay [4]; in the assay with Lolium perenne (LOLPE) [5]; in the assay on Setaria faberi (SETFA) [6]) was 100% each time. Moreover, the pest or weed control at 500 g/ha in assay [7] stood at 80%; in the assay with Avena fatua (AVEFA) [8] it was 70%; in assay [9], 100%; in [10], 100%; in the assay on Lolium perenne (LOLPE) [11], 60%; with Setaria faberi (SETFA) [12] it was 90%.
For the compound `CCc1cc(C)cc(CC)c1C1=C(OC(C)=O)CC(C2CCCS(=O)(=O)C2)CC1=O` (stereo not drawn) [Compound P2], the pest or weed control at 500 g/ha amounted to 90% in assay [1]; 100% in the assay with Avena fatua (AVEFA) [2]; 100% in assay [3]; 100% in assay [4]; 80% in the assay on Lolium perenne (LOLPE) [5]; 100% with Setaria faberi (SETFA) [6]. In addition, the pest or weed control at 125 g/ha turned out to be 10% in assay [7] (rate 125 g/ha); 20% in the assay with Avena fatua (AVEFA) [8] (rate 125 g/ha); 90% in [9] (rate 125 g/ha); 20% in [10] (rate 125 g/ha); 0% with Lolium perenne (LOLPE) [11] (rate 125 g/ha); 20% with Setaria faberi (SETFA) [12] (rate 125 g/ha).
`CC(=O)OC1=C(c2c(C)cc(C)cc2C)C(=O)CC(C2CCOC2)C1` (stereo not drawn) [Compound P1, 3-oxo-5-(tetrahydrofuran-3-yl)-2-(2,4,6-trimethylphenyl)cyclohex-1-enyl acetate]: the pest or weed control at 500 g/ha in assay [1] is 60%; in the assay on Avena fatua (AVEFA) [2], 20%; in assay [3], 60%; in assay [4], 30%; in the assay with Lolium perenne (LOLPE) [5], 70%; in the assay with Setaria faberi (SETFA) [6], 0%. The pest or weed control at 500 g/ha is 80% in assay [7]; 20% in the assay on Avena fatua (AVEFA) [8]; 80% in assay [9]; 70% in assay [10]; 80% with Lolium perenne (LOLPE) [11]; 70% in the assay with Setaria faberi (SETFA) [12].
